For data set [1] the following is noted: rat, in vivo, iv.
Description: Animals were anesthetized with halothane during catheterization of right saphenous vein (for peptide infusions) and right femoral artery (for blood sampling and monitoring of arterial pressure). Colonic temperature was measured and controlled. […] Arterial samples were collected every 30 min into heparinized Natelson capillaries, the plasma separated on a bench-top centrifuge and then frozen at −20° C. until assay.
A short description of data set [2]: Solubility in water or saline at room temperature, visual inspection. In kind it is physicochemical. An excerpt: Samples were visually inspected for clarity of the sample, any appearance of turbidity or haziness.
A short description of data set [3]: Body weight change in DIO Long Evans rats after 13 days continuous dosing by osmotic pump. The conditions noted are these: for ED50 of weight loss: DIO rats, 13 days infusion, fits sharing vehicle response and common maximum (FIG. 9); for common maximal weight loss response: over 13 days, fits constrained to share it (FIG. 9); for weight loss compared to vehicle control after 13 days: DIO LE rats, single agent.
Description: Rats were 15-17 weeks old at the start of the study. The rats were housed 1 per cage and given ad libitum access to high fat diet (Harlan TD.95217, 4.3 kcal/g) and water, maintained on a 12 hr light/dark cycle from 5:00 AM to 5:00 PM at 21° C. and 50% relative humidity and allowed to acclimate for at least 10 days prior to the surgeries. Baseline fat mass and non-fat mass measurements were taken 3 days before the start of peptide infusion using a QMR instrument (Echo Medical Systems, Houston, TX). Body weight measurements were taken 2 times/week starting three days before the surgery. Rats were randomized according to their percent body fat mass and/or body weight into the various treatment groups (n=4-6 rats/group). […] On the day of surgery, rats were anesthetized under isoflurane and the dorsal skin surface was shaved and cleansed. Rats were injected SC with Flunexin (2.5 mg/kg). A 1-2 cm surgical incision was made between the scapulae. Using blunt dissection, a 2-3 cm subcutaneous tunnel was created into which the sterile, filled, mini-osmotic pump was introduced. The skin opening was closed with a skin staple. Each rat was implanted with either one or two osmotic pumps containing vehicle or peptide according to their treatment group. All the data are presented as mean±SEM. The data were analyzed in Excel and/or Prism (GraphPad Software, Inc., La Jolla, CA) using one-way ANOVA to compare each group to the appropriate control group.

For data set [4] the following is noted: rat, in vivo.
For data set [5], the target named is human GLP-1R (Homo sapiens, UniProt P43220). Briefly: Peptide-receptor mediated cAMP accumulation (LANCE Ultra cAMP) in CHO-K1 cells transfected with human GLP-1R. In kind it is cell-based. Background: cAMP levels reflect the balance of adenylyl cyclase and phosphodiesterase activity.
human GLP-1R, sequence (P43220 24-463): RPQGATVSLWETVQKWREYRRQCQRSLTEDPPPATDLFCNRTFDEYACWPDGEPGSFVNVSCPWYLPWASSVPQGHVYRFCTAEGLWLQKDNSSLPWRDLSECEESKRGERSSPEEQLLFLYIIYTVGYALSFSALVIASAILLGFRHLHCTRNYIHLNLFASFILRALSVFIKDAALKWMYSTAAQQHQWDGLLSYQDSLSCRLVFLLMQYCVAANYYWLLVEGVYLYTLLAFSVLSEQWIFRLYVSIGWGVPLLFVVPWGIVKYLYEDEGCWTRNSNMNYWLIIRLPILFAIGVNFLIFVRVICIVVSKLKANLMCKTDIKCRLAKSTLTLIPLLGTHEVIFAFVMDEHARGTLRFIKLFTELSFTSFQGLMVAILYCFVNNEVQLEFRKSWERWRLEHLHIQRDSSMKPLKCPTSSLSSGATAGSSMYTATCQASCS
Data set [6] can be described thus: FIGURE 2B.
The nature of data set [7]: Stability in water or saline at 37° C. and room temperature, 30 days, LC/MS and HPLC purity. In kind it is physicochemical. An excerpt: Samples were withdrawn at a regular interval for 30 days and analyzed by LC/MS and HPLC for determination of purity and mass of the degradation product.
Data set [8] is described as follows: in vivo. The conditions noted are these: rat, iv.
Data set [9] can be described thus: Intravenous bolus injection pharmacokinetics, clearance (CL), cyclic peptide glucagon analogs. The conditions noted are these: rat, in vivo; male Wistar Han rats, single iv bolus 0.1 mg/kg; read-out: IV Bolus Clearance Kidney (CL).
Description: Peptides were administered as a single intravenous bolus dose to non-fasted male Wistar Han rats (n=3 per group) via jugular vein cannula. Compounds were formulated as solutions in either sterile saline, acidified saline (pH 2.0 or 4.5), or 5% DMSO in water and administered at a volume of 1.5 mL/kg and a final dose of 0.1 mg/kg. […] Plasma was prepared by centrifugation and stored at −80° C. until analysis.
Protein Precipitation: All 96-well plates were coated with a blocking agent to mitigate non-specific binding of peptides. Plasma samples (75 uL) were added to a 96-well plate containing 200 uL of 2:1 ethanol:acetonitrile containing 0.1% TFA and mixed well via aspiration. Plates were capped, vortex-mixed and centrifuged. Supernatants (215 uL) were transferred to a clean 96-well plate, evaporated to dryness under nitrogen flow and then reconstituted in 75 μL of 20% acetonitrile in water containing 0.10% formic acid.
Solid-Phase Extraction: Samples were diluted 3-fold with 5% NH4OH (aq) and loaded onto an Oasis MAX microElution plate (Waters Corp, Milford, MA) that had been pre-conditioned with 200 uL each of methanol and 5% NH4OH (aq). […]
All calibration standards were prepared in control rat plasma containing K2EDTA and protease inhibitor cocktail. […] Peptides were quantified my monitoring one or more product ions produced from a multiply charged parent ion.
Data set [10] addresses human GCGR (Homo sapiens, UniProt P47871). Briefly: Peptide-receptor mediated cAMP accumulation (LANCE Ultra cAMP) in CHO-K1 cells transfected with human GCGR. In kind it is cell-based.
Data set [11] is described as follows: 3-hour intravenous infusion pharmacokinetics, peptide clearance (CL). The conditions noted are these: male, rat, in vivo.
A short description of data set [12]: Clearance at intravenous infusion rate of 10 mcg/kg/hr.
Data set [13] is described as follows: Steady state plasma concentrations of glucagon analogs given subcutaneously by osmotic minipump. In kind it is in vivo, rat.
Setting [14] is: hGLP1 pEC50 (cAMP mean (n = 3): 11 point curve starting at 1 nM, Table 3).
The mark [15] stands for this setting: hGLP1 pEC50 (cAMP) mean (n = 9): 11 point curve starting at 500 uM, Table 2A.

Entries after “also recorded” stand apart in the source; their conditions may differ. Like-named read-outs stand apart in the source and are kept apart here. Where a SMILES comes first, the peptide text is derived from it. Bridges are numbered along the chain shown (N, C = ends).

human GCGR, sequence (P47871 26-477): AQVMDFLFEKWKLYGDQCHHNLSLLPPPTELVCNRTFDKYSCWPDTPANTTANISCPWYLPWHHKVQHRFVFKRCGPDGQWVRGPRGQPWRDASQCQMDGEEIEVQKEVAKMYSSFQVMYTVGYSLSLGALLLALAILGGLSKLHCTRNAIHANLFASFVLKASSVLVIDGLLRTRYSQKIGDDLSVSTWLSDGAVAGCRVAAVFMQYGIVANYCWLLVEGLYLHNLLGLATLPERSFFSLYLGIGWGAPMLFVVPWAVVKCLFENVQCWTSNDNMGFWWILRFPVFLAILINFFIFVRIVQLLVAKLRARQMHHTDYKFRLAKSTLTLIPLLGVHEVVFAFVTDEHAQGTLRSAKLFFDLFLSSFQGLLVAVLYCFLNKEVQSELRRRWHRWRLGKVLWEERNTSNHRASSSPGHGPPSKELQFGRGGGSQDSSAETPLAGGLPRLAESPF

On to “GLP-1: glucagon-like peptide-1; infused as GLP-1-(7-36)amide in Example 13”, for which the Plasma clearance rates in data set [1] was 34±4 to 38±3.
Consider `CC(C)C[C@H](NC(=O)[C@H](Cc1ccc(O)cc1)NC(=O)[C@H](CCCCN)NC(=O)[C@H](CO)NC(=O)[C@H](Cc1ccc(O)cc1)NC(=O)[C@H](CC(=O)O)NC(=O)[C@H](CO)NC(=O)[C@@H](NC(=O)[C@H](Cc1ccccc1)NC(=O)[C@@H](NC(=O)CNC(=O)[C@H](CCC(N)=O)NC(=O)[C@H](CO)NC(=O)[C@@H](N)Cc1ccc(O)cc1)[C@@H](C)O)[C@@H](C)O)C(=O)N[C@@H](CC(=O)O)C(=O)N[C@@H](C)C(=O)N[C@@H](C)C(=O)N[C@@H](CCCNC(=N)N)C(=O)N[C@@H](C)C(=O)N[C@@H](CCC(N)=O)C(=O)N[C@@H](CCC(=O)O)C(=O)N[C@@H](Cc1ccccc1)C(=O)N[C@H](C(=O)N[C@@H](CCCCN)C(=O)N[C@@H](Cc1c[nH]c2ccccc12)C(=O)N[C@@H](CC(C)C)C(=O)N[C@@H](CCC(=O)O)C(=O)N[C@@H](CC(=O)O)C(=O)N[C@@H](CCC(=O)O)C(=O)N1CCC[C@H]1C(=O)N[C@@H](CCCCN)C(=O)N[C@@H](CO)C(=O)N[C@@H](CCCCN)C(=O)N[C@@H](CO)C(=O)N1CCC[C@H]1C(=O)N1CCC[C@H]1C(=O)N1CCC[C@H]1C(=O)N[C@@H](CO)C(N)=O)C(C)C` [Compound A3] (H-YSQGTFTSDYSKYLDAARAQEFVKWLEDEPKSKSPPPS-NH2; N-terminus assumed), for which the solubility in data set [2] (Solubility in water mg/ml) was greater than 200 mg/mL. Besides, in data set [3], the “ED50 of weight loss” value came out at 535 µg/kg/day and the “common maximal weight loss response” value came out at 27.2%. The mode of clearance result in [4] is given as “cleared from plasma via glomerular filtration”. In addition, in data set [5] (setting [14]), the response was half-maximal at 200 nM (EC50). Also, in [5] (setting [15]), the EC50 was 200 nM. In addition, in [6], the “CL” value is given as 12.5 ± 1.6 mL/min/kg. In data set [7], the “Stability 1 mg/ml in water at 37 degC” value was greater than 64%. The compound also gave a clearance in data set [8] of 10.7 mL/min/kg.
With `CC(C)C[C@H](NC(=O)[C@H](Cc1ccc(O)cc1)NC(=O)[C@H](CCCCN)NC(=O)[C@H](CO)NC(=O)[C@H](Cc1ccc(O)cc1)NC(=O)[C@H](CC(=O)O)NC(=O)[C@H](CO)NC(=O)[C@@H](NC(=O)[C@H](Cc1ccccc1)NC(=O)[C@@H](NC(=O)CNC(=O)[C@H](CCC(N)=O)NC(=O)[C@H](CO)NC(=O)[C@@H](N)Cc1ccc(O)cc1)[C@@H](C)O)[C@@H](C)O)C(=O)N[C@@H](CC(=O)O)C(=O)N[C@@H](CO)C(=O)N[C@H]1CCCCNC(=O)CC[C@@H](C(=O)N[C@@H](Cc2ccccc2)C(=O)N[C@H](C(=O)N[C@H]2CCCCNC(=O)CC[C@@H](C(=O)N[C@H](C(=O)O)[C@@H](C)O)NC(=O)[C@H](CCC(N)=O)NC(=O)[C@H](CC(C)C)NC(=O)[C@H](Cc3c[nH]c4ccccc34)NC2=O)C(C)C)NC(=O)[C@H](CCC(N)=O)NC(=O)[C@H](C)NC(=O)[C@H](CCCNC(=N)N)NC1=O` [Compound A105] (H-YSQGTFTSDYSKYLDSKRAQEFVKWLQET-OH; lactam 17-21, 24-28), the clearance in [9] came out at 67 ± 7.3 mL/min/kg.
Take `CC(C)C[C@H](NC(=O)[C@H](Cc1ccc(O)cc1)NC(=O)[C@H](CCCCN)NC(=O)[C@H](CO)NC(=O)[C@H](Cc1ccc(O)cc1)NC(=O)[C@H](CC(=O)O)NC(=O)[C@H](CO)NC(=O)[C@@H](NC(=O)[C@H](Cc1ccccc1)NC(=O)[C@@H](NC(=O)CNC(=O)[C@H](CCC(N)=O)NC(=O)[C@H](CO)NC(=O)[C@@H](N)Cc1ccc(O)cc1)[C@@H](C)O)[C@@H](C)O)C(=O)N[C@@H](CC(=O)O)C(=O)N[C@@H](CO)C(=O)N[C@H]1CCCCNC(=O)CC[C@@H](C(=O)N[C@@H](Cc2ccccc2)C(=O)N[C@H](C(=O)N[C@H]2CCCCNC(=O)CC[C@@H](C(=O)N[C@H](C(=O)O)[C@@H](C)O)NC(=O)[C@H](CC(=O)O)NC(=O)[C@H](CC(C)C)NC(=O)[C@H](Cc3c[nH]c4ccccc34)NC2=O)C(C)C)NC(=O)[C@H](CCC(N)=O)NC(=O)[C@H](C)NC(=O)[C@H](CCCNC(=N)N)NC1=O` [Compound A104] (H-YSQGTFTSDYSKYLDSKRAQEFVKWLDET-OH; lactam 17-21, 24-28): the clearance in data set [9] turned out to be 80.7 ± 15.4 mL/min/kg.
As to `CC(C)C[C@H](NC(=O)[C@H](Cc1ccc(O)cc1)NC(=O)[C@H](CCCCN)NC(=O)[C@H](CO)NC(=O)[C@H](Cc1ccc(O)cc1)NC(=O)[C@H](CC(=O)O)NC(=O)[C@H](CO)NC(=O)[C@@H](NC(=O)[C@H](Cc1ccccc1)NC(=O)[C@@H](NC(=O)CNC(=O)[C@H](Cc1c[nH]cn1)NC(=O)[C@H](CO)NC(=O)[C@@H](N)Cc1ccc(O)cc1)[C@@H](C)O)[C@@H](C)O)C(=O)N[C@@H](CC(=O)O)C(=O)NC(C)(C)C(=O)N[C@@H](CCCCN)C(=O)N[C@@H](CO)C(=O)N[C@@H](C)C(=O)N[C@@H](CCC(N)=O)C(=O)N[C@@H](CCC(=O)O)C(=O)N[C@@H](Cc1ccccc1)C(=O)N[C@H](C(=O)NC(C)(C)C(=O)N[C@@H](Cc1c[nH]c2ccccc12)C(=O)N[C@@H](CC(C)C)C(=O)N[C@@H](CCC(=O)O)C(=O)N[C@@H](CC(=O)O)C(=O)N[C@@H](CCC(=O)O)C(=O)N1CCC[C@H]1C(=O)N[C@@H](CO)C(=O)N[C@@H](CO)C(=O)NCC(=O)N[C@@H](C)C(=O)N1CCC[C@H]1C(=O)N1CCC[C@H]1C(=O)N1CCC[C@H]1C(=O)N[C@@H](CO)C(=O)O)C(C)C` [Compound A2], in data set [2] (Table 3, room temperature, read-out: Solubility in water), the solubility was greater than 200 mg/mL. The concentration for a half-maximal effect (EC50) in data set [10] was 0.002 nM; in data set [5] (setting [14]), 3980 nM; in [5] (setting [15]), 3980 nM. Besides, the “activation profile at the human glucagon receptor (GCGR)” value in data set [10] (FIG. 1A) is listed as “nearly equipotent on GCGR”. Besides, in data set [10] (Table 3), the “hGCGR pEC50 (cAMP mean (n = 3): 11 point curve starting at 1 nM)” value came out at 11.7. Besides, the “weight loss compared to vehicle control after 13 days” value in data set [3] (0.01 mg/kg/day) worked out at 3.7%; in data set [3] (0.03 mg/kg/day) it was 3.9%; in [3] (0.1 mg/kg/day), 8.6%; in data set [3] (0.3 mg/kg/day), 23.7%. The “ED50 of weight loss” value in [3] was 271 µg/kg/day. For the same compound, in data set [3], the “common maximal weight loss response” value came to 27.2%. The clearance in data set [11] came to 10.8 mL/min/kg; in data set [12] (rat, in vivo, iv, 10 mcg/kg/hr, CL mL/min/kg, Table 5, intravenous infusion rate 10 mcg/kg/hr), 10.8 mL/min/kg. For the same compound, the “activation profile at the human GLP-1 receptor (GLP-1R)” value in data set [5] (FIG. 1B) is “inactive on GLP-1R”. Moreover, the “CL” value was 12.3 ± 0.6 mL/min/kg in data set [6] and 11.3 mL/min/kg in data set [12] (Table 5, intravenous infusion rate 10 mcg/kg/hr, rat). The “clearance compared with exenatide and glucagon” value in [12] (FIG. 7) was “less than that of exenatide and glucagon”. The mode of clearance entry in data set [12] (FIG. 7, Table 5 values close to GFR) is “cleared from plasma via glomerular filtration”; in data set [13] (FIG. 6, steady state plasma concentration vs inulin/GFR), “consistent with being via glomerular filtration; also recorded: cleared mainly by glomerular filtration”. Further, in data set [7] (Table 3, % printed only in cells of A1-A6), the “Stability 1 mg/ml in water at 37 degC” value is given as greater than 84%. Moreover, the subcutaneous bioavailability result in data set [13] (sc osmotic minipump, rat) was “high”.

In general, solubility refers to how much of the substance goes into solution per volume. The term EC50 denotes the concentration that produces a half-maximal response.

(Values after patent publication US20240239861A1, “GLUCAGON-RECEPTOR SELECTIVE POLYPEPTIDES AND METHODS OF USE THEREOF” (i2O Therapeutics, Inc., priority 2016, published 2024).)
